Calls of active or inactive are those of the source. The calls are words filed in the database; no cut-off is given here. Starred links: 1 amine or outer side, 2 acyl side, 3 side chain; linkers in the order of their positions; H or OH if unused. Non-standard residues stand in square brackets, D forms with d. Residues, ends and D or L forms follow the SMILES beside them. *: point of attachment. X1 = N=C(CCl)NCCCC(N[*:1])C(=O)[*:2]; Butanoyl(4-ethynyl) = C#CCCCC(=O)*
Legend:
[1] = species: Homo sapiens; experiment: Binding affinity to PRMT1 C101A mutant (unknown origin) assessed as biotin labelling of PRMT1 at <25 uM using biotin azide and in presence of SAM incubated for 30 mins by Western blot analysis
[2] = biological target: T1, Protein arginine N-methyltransferase 5 (Homo sapiens, UniProt O14744); experiment: Inhibition of recombinant full-length N-terminal His6-tagged PRMT5 (unknown origin) using AcH4-21 peptide substrate preincubated for 10 mins followed by substrate/14C-methyl-SAM addition and measured after 15 mins by phosphorimaging analysis based radioisotopic assay
[3] = biological target: T2, Protein arginine N-methyltransferase 1 (Homo sapiens, UniProt Q99873); experiment: Binding affinity to recombinant full-length N-terminal His6-tagged PRMT1 (unknown origin) assessed as biotin labelling of PRMT1 at >25 uM using biotin azide incubated for 30 mins by Western blot analysis
Target sequence in this assay (Q99873 whole entry, looked up): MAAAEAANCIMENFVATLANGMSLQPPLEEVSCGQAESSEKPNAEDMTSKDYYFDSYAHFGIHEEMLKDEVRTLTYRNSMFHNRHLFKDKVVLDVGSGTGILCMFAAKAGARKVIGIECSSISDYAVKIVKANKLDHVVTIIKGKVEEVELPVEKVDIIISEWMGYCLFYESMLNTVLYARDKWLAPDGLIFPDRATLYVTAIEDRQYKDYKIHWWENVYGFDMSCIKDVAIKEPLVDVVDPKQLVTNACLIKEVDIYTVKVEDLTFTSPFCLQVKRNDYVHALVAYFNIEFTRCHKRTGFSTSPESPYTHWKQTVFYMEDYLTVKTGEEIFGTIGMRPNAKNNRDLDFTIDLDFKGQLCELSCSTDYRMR

[4] = species: Homo sapiens; experiment: Binding affinity to PRMT1 C101A mutant (unknown origin) assessed as optimum drug level for biotin labelling of PRMT1 using biotin azide and in presence of SAM incubated for 30 mins by Western blot analysis
[5] = biological target: T2, Protein arginine N-methyltransferase 1; experiment: Inhibition of recombinant full-length N-terminal His6-tagged PRMT1 (unknown origin) using AcH4-21 peptide substrate preincubated for 10 mins followed by substrate/14C-methyl-SAM addition and measured after 15 mins by phosphorimaging analysis based radioisotopic assay
Target sequence in this assay (Q99873 whole entry): as the sequence (Q99873 whole entry, looked up) above

[6] = species: Homo sapiens; experiment: Binding affinity to PRMT1 C101A mutant (unknown origin) assessed as biotin labelling of PRMT1 at >25 uM using biotin azide and in presence of SAM incubated for 30 mins by Western blot analysis
[7] = biological target: T2, Protein arginine N-methyltransferase 1; experiment: (§1) Binding affinity to recombinant full-length N-terminal His6-tagged PRMT1 (unknown origin) assessed as biotin labelling of PRMT1 at 10 uM in presence of recombinant full-length N-terminal His6-tagged PRMT5 (unknown origin) using biotin azide and in presence of SAM incubated for 30 mins at 25 degC by Western blot analysis
Target sequence in this assay (Q99873 whole entry, looked up): as above

[8] = biological target: T2, Protein arginine N-methyltransferase 1; experiment: Binding affinity to recombinant full-length N-terminal His6-tagged PRMT1 (unknown origin) assessed as lowest drug level for biotin labelling of PRMT1 using biotin azide and in presence of SAM incubated for 30 mins by Western blot analysis
Target sequence in this assay (Q99873 whole entry, looked up): as above

[9] = species: Homo sapiens; experiment: Selectivity index, ratio of binding affinity to recombinant full-length N-terminal His6-tagged PRMT5 (unknown origin) assessed as biotin labelling of PRMT5 at 25 uM to binding affinity to recombinant full-length N-terminal His6-tagged PRMT1 (unknown origin) assessed as biotin labelling of PRMT1 at 25 uM
[10] = biological target: T1, Protein arginine N-methyltransferase 5; experiment: Binding affinity to recombinant full-length N-terminal His6-tagged PRMT5 (unknown origin) assessed as biotin labelling of PRMT5 at 50 uM using biotin azide incubated for 30 mins by Western blot analysis
[11] = biological target: T2, Protein arginine N-methyltransferase 1; experiment: Binding affinity to recombinant full-length N-terminal His6-tagged PRMT1 (unknown origin) assessed as biotin labelling of PRMT1 at 1 uM using biotin azide and in absence of SAM incubated for 30 mins by Western blot analysis
Target sequence in this assay (Q99873 whole entry, looked up): as above

[12] = biological target: T2, Protein arginine N-methyltransferase 1; experiment: Binding affinity to recombinant full-length N-terminal His6-tagged PRMT1 (unknown origin) assessed as biotin labelling of PRMT1 at 1 uM using biotin azide and in presence of SAM incubated for 30 mins by Western blot analysis
Target sequence in this assay (Q99873 whole entry, looked up): as above

[13] = biological target: T2, Protein arginine N-methyltransferase 1; experiment: as §1, with “37” for “25”
Target sequence in this assay (Q99873 whole entry, looked up): as above

[14] = biological target: T2, Protein arginine N-methyltransferase 1; experiment: Binding affinity to recombinant full-length N-terminal His6-tagged PRMT1 (unknown origin) assessed as time needed for maximum biotin labelling of PRMT1 at 10 uM using biotin azide and in presence of SAM incubated for 30 mins by Western blot analysis

T1 sequence (O14744 whole entry): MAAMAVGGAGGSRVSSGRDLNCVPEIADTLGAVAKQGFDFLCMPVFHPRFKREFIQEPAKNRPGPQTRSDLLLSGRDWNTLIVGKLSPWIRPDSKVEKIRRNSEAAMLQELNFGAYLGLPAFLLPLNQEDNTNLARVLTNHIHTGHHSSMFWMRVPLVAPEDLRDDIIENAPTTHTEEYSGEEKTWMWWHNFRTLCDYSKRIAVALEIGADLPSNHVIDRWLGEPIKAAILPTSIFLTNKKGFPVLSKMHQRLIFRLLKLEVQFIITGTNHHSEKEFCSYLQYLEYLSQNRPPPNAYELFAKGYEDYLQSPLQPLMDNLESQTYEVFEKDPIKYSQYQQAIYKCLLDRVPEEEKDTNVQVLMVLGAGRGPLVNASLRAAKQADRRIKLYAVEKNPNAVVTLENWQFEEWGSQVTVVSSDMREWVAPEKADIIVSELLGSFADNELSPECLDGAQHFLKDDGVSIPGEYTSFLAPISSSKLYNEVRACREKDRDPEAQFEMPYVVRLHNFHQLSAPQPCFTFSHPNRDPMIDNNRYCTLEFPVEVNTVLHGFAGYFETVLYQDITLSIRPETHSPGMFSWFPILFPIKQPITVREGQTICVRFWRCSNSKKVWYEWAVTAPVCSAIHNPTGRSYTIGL

- Activity [1]: inactive
- IC50 [2]: > 500 µM
- Activity [3]: Active
- Activity [4]: 10 µM
- IC50 [5]: 20 µM
- Activity [6]: Active
- Activity [7]: Active
- Activity [8]: 0.25 µM
- Ratio [9]: 8
- Activity [10]: inactive
- Activity [11]: Active
- Activity [12]: Active
- Activity [13]: Active
- TIME [14]: 0.5 h
Compound: C#CCCCC(=O)N[C@@H](Cc1cnc[nH]1)C(=O)N[C@@H](CCCCN)C(=O)N[C@@H](Cc1cnc[nH]1)C(=O)N[C@@H](C)C(=O)NC(CCCNC(=N)CCl)C(=O)NCC(=O)NCC(=O)N[C@@H](CCCCN)C(=O)NCC(=O)N[C@@H](CC(C)C)C(=O)NCC(=O)N[C@@H](CCCCN)C(=O)NCC(=O)NCC(=O)N[C@@H](C)C(=O)N[C@@H](CCCCN)C(=O)O (some centres undefined) ({Butanoyl(4-ethynyl)}-HKHA[X1]GGKGLGKGGAK-OH)
